“And” between values parts separate entries of the source, which are not always exact repeats. Identical values can stand only once. Inconclusive results and toxic doses are left out. No stated cut-off is given here; in the data, active means T/C of 150% or more; inactive means T/C below 125%.
Tested on: L1210 leukemia ip in BDF1 mice, survival T/C
Test: NCI In Vivo Anticancer Drug Screen. Data for tumor model L1210 Leukemia (intraperitoneal) in B6D2F1 (BDF1) mice
Conditions: endpoint: mean survival time, higher = longer survival
Summary of the method: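 Tumor cells were implanted, animals were treated, and survival was followed. The result divides the treated measurement by the vehicle-control measurement.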

[1] = dose: 100.0 mg/kg/injection, schedule: Q01DX009 (ip), vehicle: Klucel (hydroxypropylcellulose) (HPC)
[2] = dose: 200.0 mg/kg/injection, schedule: Q01DX009 (ip), vehicle: Klucel (hydroxypropylcellulose) (HPC)
[3] = dose: 400.0 mg/kg/injection, schedule: Q01DX009 (ip), vehicle: Klucel (hydroxypropylcellulose) (HPC)
[4] = dose: 100.0 mg/kg/injection, schedule: Q04DX002 (ip), vehicle: saline
[5] = dose: 200.0 mg/kg/injection, schedule: Q04DX002 (ip), vehicle: saline
[6] = dose: 400.0 mg/kg/injection, schedule: Q04DX002 (ip), vehicle: saline
[7] = dose: 50.0 mg/kg/injection, schedule: Q01DX009 (ip), vehicle: saline with Tween-80
[8] = dose: 100.0 mg/kg/injection, schedule: Q01DX009 (ip), vehicle: saline with Tween-80
[9] = dose: 100.0 mg/kg/injection, schedule: Q04DX003 (ip), vehicle: saline with Tween-80
[10] = dose: 200.0 mg/kg/injection, schedule: Q04DX003 (ip), vehicle: saline with Tween-80

Measured: T/C

CC(=O)Nc1ccc(OCCOC(=O)Nc2ccccc2C(F)(F)F)cc1
inactive: [1] 91 % of control | [2] 105 % of control | [3] 93 % of control

COc1cc(C=Nc2ccc(-c3csc(COc4ccccc4)n3)c(Cl)c2)ccc1N(CCCl)CCCl
inactive: dose: 5.0 mg/kg/injection, schedule: Q01DX015 (ip), vehicle: carboxymethylcellulose (CMC) 111 % of control | dose: 10.0 mg/kg/injection, schedule: Q01DX015 (ip), vehicle: carboxymethylcellulose (CMC) 113 % of control | dose: 20.0 mg/kg/injection, schedule: Q01DX015 (ip), vehicle: carboxymethylcellulose (CMC) 104 % of control | dose: 44.0 mg/kg/injection, schedule: Q01DX015 (ip), vehicle: carboxymethylcellulose (CMC) 97 % of control | dose: 200.0 mg/kg/injection, schedule: Q01DX001 (sc), vehicle: carboxymethylcellulose (CMC) 118 % of control

Cc1ccc(Nc2cc(=O)[nH]c(N)n2)cc1
inactive: dose: 100.0 mg/kg/injection, schedule: Q01DX Z (ip), vehicle: methylcellulose (MC) 94 % of control

O=[N+]([O-])c1c(Br)sc(Br)c1[N+](=O)[O-]
inactive: dose: 2.5 mg/kg/injection, schedule: Q01DX009 (ip), vehicle: Klucel (hydroxypropylcellulose) (HPC) 88 % of control | dose: 2.5 mg/kg/injection, schedule: Q04DX003 (ip), vehicle: Klucel (hydroxypropylcellulose) (HPC) 109 % of control | dose: 5.0 mg/kg/injection, schedule: Q01DX009 (ip), vehicle: Klucel (hydroxypropylcellulose) (HPC) 88 % of control | dose: 5.0 mg/kg/injection, schedule: Q04DX003 (ip), vehicle: Klucel (hydroxypropylcellulose) (HPC) 101 % of control | dose: 10.0 mg/kg/injection, schedule: Q01DX009 (ip), vehicle: Klucel (hydroxypropylcellulose) (HPC) 108 % of control | dose: 10.0 mg/kg/injection, schedule: Q04DX003 (ip), vehicle: Klucel (hydroxypropylcellulose) (HPC) 96 % of control

N#C/C(=C/c1cccc2ccccc12)C(N)=O
inactive: dose: 100.0 mg/kg/injection, schedule: Q04DX002 (ip), vehicle: saline with Tween-80 98 % of control | dose: 200.0 mg/kg/injection, schedule: Q04DX002 (ip), vehicle: saline with Tween-80 91 % of control | dose: 400.0 mg/kg/injection, schedule: Q04DX002 (ip), vehicle: saline with Tween-80 98 % of control

O=C(Cc1ccccc1)Nc1ccc(Cl)cc1C(=O)c1ccccc1
inactive: [4] 101 % of control | [5] 93 % of control | [6] 90 % of control

O=C1CCCC/C1=C\Sc1ccccc1
inactive: [4] 95 % of control | [5] 98 % of control | [6] 88 % of control

c1ccc2c(c1)O[As](O[As]1Oc3ccccc3O1)O2
inactive: dose: 1.56 mg/kg/injection, schedule: Q04DX003 (ip), vehicle: saline 104 % of control | dose: 3.12 mg/kg/injection, schedule: Q01DX009 (ip), vehicle: saline with Tween-80 108 % of control | dose: 3.12 mg/kg/injection, schedule: Q04DX003 (ip), vehicle: saline 106 % of control | dose: 6.25 mg/kg/injection, schedule: Q01DX009 (ip), vehicle: saline with Tween-80 116 % of control | dose: 6.25 mg/kg/injection, schedule: Q04DX003 (ip), vehicle: saline 115 % of control | dose: 12.5 mg/kg/injection, schedule: Q01DX009 (ip), vehicle: saline with Tween-80 122 % of control | dose: 12.5 mg/kg/injection, schedule: Q04DX003 (ip), vehicle: saline with Tween-80 96 % of control

O=[N+]([O-])c1ccc(N/N=C/c2ccnc3ccccc23)cc1
inactive: [1] 93 % of control | [2] 91 % of control | [3] 91 % of control

Nc1cc(Nc2cccc(Cl)c2)nc(N)n1
inactive: dose: 100.0 mg/kg/injection, schedule: Q01DX001 (ip), vehicle: carboxymethylcellulose (CMC) 94 % of control

CCCC(Cc1ccccc1)N1CCCC1 (centres undefined)
inactive: dose: 3.12 mg/kg/injection, schedule: Q01DX009 (ip), vehicle: saline 103 % of control | dose: 6.25 mg/kg/injection, schedule: Q01DX009 (ip), vehicle: saline 103 % of control | dose: 12.5 mg/kg/injection, schedule: Q01DX009 (ip), vehicle: saline 97 % of control | dose: 25.0 mg/kg/injection, schedule: Q01DX009 (ip), vehicle: saline 103 % of control | dose: 25.0 mg/kg/injection, schedule: Q04DX003 (ip), vehicle: saline 92 % of control | dose: 50.0 mg/kg/injection, schedule: Q04DX003 (ip), vehicle: saline 95 % of control

O=C1O[B-](c2ccccc2)(c2ccccc2)[NH2+]C1Cc1ccc(O)cc1 (centres undefined)
inactive: dose: 75.0 mg/kg/injection, schedule: Q01DX001 (ip), vehicle: acetone 91 % of control | dose: 150.0 mg/kg/injection, schedule: Q01DX001 (ip), vehicle: acetone 96 % of control | dose: 300.0 mg/kg/injection, schedule: Q01DX001 (ip), vehicle: acetone 95 % of control

c1cnc2sccc2c1
inactive: [7] 113 % of control | [8] 95 % of control | [9] 102 % of control | [10] 103 % of control

CCCCN(CCCC)CC(C)O (centres undefined)
inactive: dose: 25.0 mg/kg/injection, schedule: Q01DX009 (ip), vehicle: saline with Tween-80 101 % of control | dose: 25.0 mg/kg/injection, schedule: Q04DX003 (ip), vehicle: saline with Tween-80 104 % of control | [7] 95 % of control | dose: 50.0 mg/kg/injection, schedule: Q04DX003 (ip), vehicle: saline with Tween-80 96 % of control | [8] 104 % of control | [9] 98 % of control and 101 % of control

CCOC(=O)c1ccc(N=NC2C(=O)N(c3ccccc3)N=C2C)cc1 (centres undefined)
inactive: dose: 100.0 mg/kg/injection, schedule: Q01DX001 (ip), vehicle: saline 96 % of control | dose: 200.0 mg/kg/injection, schedule: Q01DX001 (ip), vehicle: saline 96 % of control

O=[N+]([O-])c1cccc(C(O)CC(O)(C(F)(F)F)C(F)(F)F)c1 (centres undefined)
inactive: [8] 98 % of control | [9] 95 % of control | dose: 200.0 mg/kg/injection, schedule: Q01DX009 (ip), vehicle: saline with Tween-80 101 % of control | [10] 97 % of control | dose: 400.0 mg/kg/injection, schedule: Q01DX009 (ip), vehicle: saline with Tween-80 95 % of control | dose: 400.0 mg/kg/injection, schedule: Q04DX003 (ip), vehicle: saline with Tween-80 103 % of control

CC1CN1CCC(=O)Nc1ccc(Cl)c(Cl)c1 (centres undefined)
inactive: dose: 50.0 mg/kg/injection, schedule: Q04DX003 (ip), vehicle: Klucel (hydroxypropylcellulose) (HPC) 97 % of control | dose: 100.0 mg/kg/injection, schedule: Q04DX003 (ip), vehicle: Klucel (hydroxypropylcellulose) (HPC) 105 % of control | dose: 200.0 mg/kg/injection, schedule: Q04DX003 (ip), vehicle: Klucel (hydroxypropylcellulose) (HPC) 100 % of control | dose: 400.0 mg/kg/injection, schedule: Q04DX003 (ip), vehicle: Klucel (hydroxypropylcellulose) (HPC) 106 % of control

COC1OC2COC(c3ccccc3)OC2C(O)C1OC(=S)SSC(=S)OC1C(OC)OC2COC(c3ccccc3)OC2C1O (centres undefined)
inactive: dose: 25.0 mg/kg/injection, schedule: Q04DX002 (ip), vehicle: Klucel (hydroxypropylcellulose) (HPC) 89 % of control | dose: 50.0 mg/kg/injection, schedule: Q04DX002 (ip), vehicle: Klucel (hydroxypropylcellulose) (HPC) 104 % of control | dose: 100.0 mg/kg/injection, schedule: Q04DX002 (ip), vehicle: Klucel (hydroxypropylcellulose) (HPC) 112 % of control
